Literature values as cited in patent publication US20020132296A1, “Human Ste20-like stress activated serine/threonine kinase” (priority 1997, published 2002).

Legend:
[1] = test system: LPS-stimulated macrophages

C[S+]([O-])c1ccc(-c2nc(-c3ccncc3)c(-c3ccc(F)cc3)[nH]2)cc1 (centres unmarked) [SB203580]
production of TNF, IL-6 and IL-8 (TNF-stimulated HUVECs): inhibit | production of TNF and IL-1 [1]: inhibit
